This note sets out measurements from PubChem BioAssay AID179 (DTP/NCI, 2004).

The test has as its system CEM cells HIV-1 protection, formazan growth assay. The test is described as follows: NCI AIDS Antiviral Assay. The following applies: for IC50: measured here: growth of uninfected CEM cells. The gist of the method: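 CEM (human) cells, HIV-1 infected vs uninfected, 5-point dosing, formazan growth read-out. Retest threshold 50% protection.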

Active and inactive are the calls of the source.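 How the source made its calls: active means compounds giving half or more protection of infected cells from virus-caused growth loss, again on retest; inactive means the rest.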

`C/C(=N/NC(=S)Nc1ccc(Cl)cc1)c1cccc(/C(C)=N\NC(=S)Nc2ccc(Cl)cc2)n1`: the EC50 was greater than 200 µM and the IC50 is 6.76 µM.

As to `O=C1OCCC1(Cc1ccc(Cl)cc1)Cc1ccc(Cl)cc1`, the EC50 is greater than 29.5 µM and the IC50 is greater than 29.5 µM.

With `CC1C2CC(C(S(=O)(=O)N3CCOCC3)/C2=N\O)C1(C)C` (stereo not given), the EC50 was greater than 200 µM and the IC50 came to 195 µM.

With `COC(=O)C1=C(C(=O)OC)C2(C3C(SC)=CC(C)(C)CC3S1)N(Cc1ccccc1)CCN2Cc1ccccc1` (stereo not given), the EC50 was greater than 9.12 µM and the IC50 was greater than 9.12 µM.

For the compound `O=C1/C(=C/c2ccccc2)CN(C(=O)CCN2CCOCC2)C/C1=C\c1ccccc1`, the EC50 is greater than 79.4 µM and the IC50 stood at 0.525 µM.

Turning to `C=CCn1c(=O)c(-c2ccccc2)c(O)c2ccccc21`, the EC50 is greater than 200 µM and the IC50 is greater than 200 µM.

As for `CNC(SC)=C1C(=O)OC(C)(C)OC1=O`, the EC50 was greater than 1070 µM and the IC50 is 457 µM.

Consider `COc1ccc2c(C3(C)OC(=O)c4ccccc43)cccc2c1` (stereo not given), for which the EC50 is greater than 40.7 µM and the IC50 was greater than 40.7 µM.

Turning to `CN1C(=O)CC(CC(=O)C2CCCCC2=O)CC1=O` (stereo not given), the EC50 is greater than 200 µM and the IC50 is greater than 200 µM.

Regarding `NC1c2c(Br)sc(N3CCCC3)c2C(=O)C1O` (stereo not given), the EC50 was greater than 200 µM and the IC50 is greater than 200 µM.

Regarding `O=C1Nc2cc(F)ccc2C1=O`, the EC50 was greater than 1510 µM and the IC50 was determined as 251 µM.

`CC(=O)C(=[N+]=[N-])C(=O)OCCOC(=O)C(=[N+]=[N-])C(C)=O`: the EC50 was greater than 200 µM and the IC50 is greater than 200 µM.

Take `O=C1Nc2ccccc2/C1=N\[O-].O=C1Nc2ccccc2/C1=N\[O-].[Cu+2]`: the EC50 was greater than 200 µM and the IC50 is greater than 200 µM.

As to `CCOP(=O)(OCC)OC1CC(n2cnc3c(N(CC)CC)ncnc32)OC1CO[Si](C)(C)C(C)(C)C` (stereo not given), the EC50 was greater than 200 µM and the IC50 came to 31.6 µM.

Regarding `CN(C)c1ccc(/C=C/c2ccnc3c(O)cccc23)cc1`, the EC50 is greater than 18.2 µM and the IC50 worked out at 1.05 µM.

For the compound `O=C1Nc2ccccc2C1(O)C/C(=N/O)c1ccc2ccccc2c1` (stereo not given), the EC50 was greater than 107 µM and the IC50 is greater than 107 µM.

For `O=C(c1ccco1)C1CC(c2c(O)ccc3ccccc23)=NN1` (stereo not given), the EC50 is greater than 200 µM and the IC50 amounted to 11.5 µM.

Turning to `CCCCCC#CC1OC12CCCCC2` (stereo not given), the EC50 is greater than 126 µM and the IC50 is greater than 126 µM.

On to `Cc1cc(S(=O)(=O)Nc2n[nH]c(Nc3ccccc3)n2)c(SCC(=O)O)cc1Cl`, for which the EC50 is greater than 200 µM and the IC50 was greater than 200 µM.

On to `[N-]=[N+]=Nc1cc(=O)oc2ccccc12`, for which the EC50 was greater than 200 µM and the IC50 turned out to be 117 µM.

With `COC(=O)[C@@H]1O[C@]12C(CO[Si](C)(C)C(C)(C)C)OC(n1ccc(=O)[nH]c1=O)C2O[Si](C)(C)C(C)(C)C` (stereo not given in full), the EC50 is greater than 200 µM and the IC50 was determined as 9.77 µM.

As to `COc1cc2c(cc1OC)-c1cc3ccc(OC)c(OC)c3c[n+]1CC2`, the EC50 was greater than 324 µM and the IC50 worked out at 145 µM.

`Oc1ccc(Nc2nc(Cl)c3[nH]cnc3n2)cc1`: the EC50 is greater than 200 µM and the IC50 was 107 µM.

In the case of `O=C(NNC(=S)NCc1ccccc1)C12CC3CC(CC(C3)C1)C2`, the EC50 is greater than 200 µM and the IC50 was determined as 25.1 µM.

On to `COc1ccc2c(c1)c1c(n2CCN2CCCCC2)-c2ccccc2CC1`, for which the EC50 is greater than 200 µM and the half-inhibitory concentration (IC50) was 13.2 µM.

`CC(C)=CC(=O)N1CC(C)Cn2c(=S)[nH]c3cccc1c32` (stereo not given): the EC50 is greater than 200 µM and the IC50 was greater than 200 µM.

For the compound `Cn1c(=O)c2c(nnc(-c3ccccc3)[n+]2[O-])n(C)c1=O`, the EC50 is greater than 200 µM and the IC50 stood at 87.1 µM.

On to `COc1cc(OC)cc(-n2c(N)c(-c3nc4ccccc4n3C)c3ccc([N+](=O)[O-])cc3c2=O)c1`, for which the EC50 was greater than 200 µM and the IC50 was greater than 200 µM.

With `CN(C)P(=O)(c1ccccc1)c1ccccc1`, the EC50 is greater than 200 µM and the IC50 is greater than 200 µM.

As for `N#C[C@H](C(=O)c1ccccc1F)c1nc2ccccc2[nH]1`, the EC50 is 170 µM and the IC50 is greater than 200 µM.

Turning to `CCOC(=O)C(CCCl)C(=O)OCC`, the EC50 was greater than 200 µM and the IC50 was greater than 200 µM.

In the case of `CN1CCC[C@H]1C(=O)c1oc(CO)cc(=O)c1O`, the result was inactive.

With `N#Cc1ccccc1Nc1ccccc1S`, the EC50 was greater than 16.6 µM and the IC50 was greater than 16.6 µM.

With `N#C/C(=C\c1c(Cl)cccc1Cl)c1ccccc1`, the EC50 is greater than 50.1 µM and the IC50 was 28.8 µM.

In the case of `COC(=O)C1CCN(C(=O)OC(C)(C)C)CC1`, the EC50 was greater than 200 µM and the IC50 is greater than 200 µM.

As for `CCCC(=O)Nc1cc2c3c(c1)CCCN3CCC2`, the EC50 is greater than 200 µM and the half-maximal inhibitory concentration (IC50) was 79.4 µM.

Regarding `Cc1cccc2c1Sc1ccccc1C2NC(=O)CCN(C)C` (stereo not given), the EC50 was greater than 550 µM and the IC50 is 31.6 µM.

`OCc1ccc2c(c1)CC1(C2)Cc2cc3c(cc2C1)CCC3`: the EC50 was greater than 200 µM and the IC50 worked out at 0.977 µM.

In the case of `O=c1[nH]c(=O)n(C2CC(O)C(COP(=O)(OCc3ccc([N+](=O)[O-])o3)N3CCCCC3)O2)cc1F` (stereo not given), the EC50 is greater than 200 µM and the IC50 worked out at 0.17 µM.

Consider `COc1ccc2c(c1)CCC1C=NOC21` (stereo not given), for which the EC50 is greater than 245 µM and the half-inhibitory concentration (IC50) turned out to be 107 µM.

As for `Cc1ccc(-c2cc(=O)c3cc(C)c(C)c(C(=O)O)c3o2)cc1[N+](=O)[O-]`, the result was inactive.

As to `Cc1cc2c(cc1Br)C1(C)CCC(C)C1(C)O2` (stereo not given), the EC50 is greater than 50.1 µM and the IC50 is greater than 50.1 µM.

Take `CCOC(=O)C(NC(C)=O)[CH](c1ccccc1)[Sn]([Cl])([c]1ccccc1)[c]1ccccc1` (stereo not given): the EC50 is greater than 200 µM and the IC50 was determined as 91.2 µM.

On to `COC1(c2ccccc2)Oc2ccccc2C(=O)C1(O)C[N+](=O)[O-]` (stereo not given), for which the EC50 is greater than 200 µM and the IC50 was determined as 15.5 µM.

For `Nc1cc(C(=O)Nc2ccc(C3=NCCN3)cc2)cc(C(=O)Nc2ccc(C3=NCCN3)cc2)c1`, the EC50 is 16.2 µM and the half-inhibitory concentration (IC50) worked out at 145 µM.

In the case of `CO[C@@H]1C2=CC=CC=C[C@H]2n2c(=O)n(-c3ccccc3)c(=O)n21`, the EC50 is greater than 162 µM and the IC50 was 81.3 µM.

As to `OCCN1CCN2C=C(C3CCCC4N(CCO)CCN34)CCC21` (stereo not given), the EC50 is greater than 741 µM and the IC50 was determined as 33.9 µM.

In the case of `OC(C/C(=N\N=C(/CC(O)(C(F)(F)F)C(F)(F)F)c1ccccc1)c1ccccc1)(C(F)(F)F)C(F)(F)F`, the EC50 was greater than 200 µM and the IC50 was greater than 200 µM.

For the compound `NC(=O)/C=C/c1c[nH]c2nccnc12`, the EC50 was greater than 191 µM and the IC50 amounted to 0.977 µM.

`COc1c2c(cc3nc4ccccc4nc13)CCC(C(C)(C)O)C2` (stereo not given): the result was inactive.

Take `Cc1cc(C)c(C(=O)/C=C/c2ccccc2)c(C)c1`: the EC50 was greater than 28.8 µM and the IC50 was greater than 28.8 µM.

As for `COC(=O)CCCC(=O)C(=Nc1c(Cl)cccc1Cl)NNc1ccc(Cl)cc1`, the EC50 is greater than 200 µM and the IC50 was 35.5 µM.

With `CC(=O)NNc1nc(C)c(C(=O)NNC(=O)C(=O)Nc2ccc(C)c(C)c2)s1`, the EC50 is greater than 170 µM and the IC50 was found to be 31.6 µM.

As for `COC(=O)C1=CON2C3CC4CC(C3)CC(C4)C12C` (stereo not given), the EC50 is greater than 200 µM and the IC50 came out at 135 µM.

`O=P(Nc1cccc(Cl)c1)(Oc1ccccc1)N(CCCl)CCCl` (stereo not given): the EC50 was greater than 17.8 µM and the IC50 stood at 6.46 µM.

As for `c1cnc2c(c1)-n1cccc1C1(CCSC1)NN2` (stereo not given), the EC50 was greater than 138 µM and the IC50 was greater than 138 µM.

For the compound `CCCCCCCCSC1OC(CO)C(O)C(O)C1O` (stereo not given), the outcome was inactive.

Regarding `O=C1Oc2ccccc2C(=O)/C1=C/N1C(=O)/C(=C/c2ccccc2)NC1=S`, the EC50 was greater than 200 µM and the IC50 was greater than 100 µM.

For the compound `O=C1OCCOCCSCCOCCOC(=O)c2cccc1n2`, the EC50 was greater than 537 µM and the IC50 came to 37.2 µM.

On to `Cc1noc(NS(=O)(=O)c2ccc(NC(=O)c3ccccc3SC(=O)CCCC[n+]3ccccc3)cc2)c1C`, for which the EC50 is 24 µM and the IC50 was found to be 53.7 µM.

Take `COc1cc(C2c3c(ccc4ccccc34)C(=O)C3CCC(=O)N32)cc(OC)c1O` (stereo not given): the EC50 is greater than 25.1 µM and the IC50 is 1.29 µM.

On to `O=c1nc2c(c(-c3ccc(Br)cc3)[nH]1)COC/C2=C\c1ccc(Br)cc1`, for which the EC50 was greater than 200 µM and the IC50 was 75.9 µM.

Regarding `c1ccc(CN(Cc2ccccn2)Cc2ccccn2)cc1`, the outcome was inactive.

For the compound `COC(=O)[C@@H](CO)NC(=O)OC(C)(C)C`, the EC50 is greater than 200 µM and the IC50 was greater than 200 µM.

Consider `C=CCNC(=S)N/C=C\c1c(C(=O)O)cc([N+](=O)[O-])cc1[N+](=O)[O-]`, for which the EC50 is greater than 200 µM and the IC50 is greater than 100 µM.

As for `CCOP(=O)(OCC)/C(C#N)=C/c1ccc(C(F)(F)F)cc1`, the EC50 was greater than 107 µM and the IC50 was 57.5 µM.

Turning to `CCOC(=O)/C(C#N)=C/c1ccc2c(-c3c(OCC)ccc4cc(/C=C(\C#N)C(=O)OCC)ccc34)c(OCC)ccc2c1`, the EC50 is greater than 200 µM and the IC50 was greater than 200 µM.

Regarding `Nc1ncnc2c1ncn2C1OC2CSCC2(O)C1O` (stereo not given), the EC50 is greater than 200 µM and the IC50 is 138 µM.

Take `COc1ccc(/C=c2\[nH]c3nc(=O)c(N4CCOCC4)c(N)n3c2=O)cc1`: the EC50 was greater than 200 µM and the IC50 was greater than 200 µM.

Regarding `O=c1c2cnccc2cc2n1CCc1c-2[nH]c2ccccc12`, the EC50 is greater than 77.6 µM and the IC50 was found to be 10.2 µM.

In the case of `COCC12CCC(OC)C34C5CC6(O)C(OC)C=C(C5C6OC(=O)c5ccccc5)C(C(OC)C13)C4N(C)C2` (stereo not given), the outcome was inactive.

On to `COc1ccccc1NC(=O)/C(=C/n1c(=S)sc2ccccc21)C(C)=O`, for which the EC50 is greater than 200 µM and the IC50 came to 115 µM.

Regarding `COC1OC(COC(=O)c2ccccc2)CC1F` (stereo not given), the EC50 is greater than 195 µM and the IC50 is 21.4 µM.
